According to ChEMBL document CHEMBL5038680, “Design, Synthesis, and Evaluation of PD-1/PD-L1 Antagonists Bearing a Benzamide Scaffold” (ACS Med Chem Lett, 2022):
Calls of active or inactive are those of the source. The rule behind the calls is not given here.

Columns and labels:
[1] = target: T1, Programmed cell death protein 1/Programmed cell death 1 ligand 1 (Homo sapiens, UniProt Q15116+Q9NZQ7); experiment: Inhibition of PD-1/PDL-1 (unknown origin) interaction incubated for 15 mins by TR-FRET assay; type: protein-complex assay
T1 sequence (Q15116 whole entry): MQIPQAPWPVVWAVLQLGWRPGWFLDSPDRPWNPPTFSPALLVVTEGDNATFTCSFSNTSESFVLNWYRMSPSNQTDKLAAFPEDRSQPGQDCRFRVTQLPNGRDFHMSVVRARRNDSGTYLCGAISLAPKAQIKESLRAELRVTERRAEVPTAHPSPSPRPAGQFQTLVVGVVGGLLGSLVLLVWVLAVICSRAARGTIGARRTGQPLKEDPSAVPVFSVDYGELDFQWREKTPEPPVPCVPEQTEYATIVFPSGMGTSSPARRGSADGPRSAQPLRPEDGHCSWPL
T1 sequence (Q9NZQ7 whole entry): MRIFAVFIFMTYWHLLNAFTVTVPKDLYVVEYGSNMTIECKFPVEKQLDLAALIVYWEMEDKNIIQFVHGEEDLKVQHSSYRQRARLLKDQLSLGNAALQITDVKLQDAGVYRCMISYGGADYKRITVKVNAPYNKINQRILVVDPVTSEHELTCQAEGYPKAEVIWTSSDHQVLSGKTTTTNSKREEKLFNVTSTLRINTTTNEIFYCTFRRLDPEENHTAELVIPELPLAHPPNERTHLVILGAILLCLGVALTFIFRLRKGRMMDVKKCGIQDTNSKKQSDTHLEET

[2] = target: T1, Programmed cell death protein 1/Programmed cell death 1 ligand 1; experiment: Inhibition of PD-1/PDL-1 (unknown origin) interaction at 1 uM incubated for 15 mins by TR-FRET assay; type: protein-complex assay
MDA-MB-231 [3] = experiment: Cytotoxicity against human MDA-MB-231 cells assessed as cell killing at 2 uM incubated for 24 hrs by LDH assay; type: functional, cell-based
MDA-MB-231 [4] = experiment: Cytotoxicity against human MDA-MB-231 cells assessed as cell killing by PBMC cell activation at 1 uM incubated for 24 hrs by LDH assay; type: functional, cell-based

Row | SMILES | IC50 [1] | inhibition [2] | Activity (MDA-MB-231 [3]) | Activity (MDA-MB-231 [4])
1 | COc1ccc(-c2cccc(C(=O)Nc3ccc(CNCCNC(C)=O)cn3)c2Cl)cc1OC | > 1000 nM |  |  | 
2 | COCCOc1cccc(-c2cccc(C(=O)Nc3ccc(CNCCNC(C)=O)cn3)c2Cl)c1 | > 1000 nM | 5.29% |  | 
3 | O=C(Nc1ccc(CNC[C@@H](O)CO)cn1)c1cccc(-c2ccccc2)c1Cl | 442 nM |  |  | 
4 | CC(=O)NCCNCc1ccc(NC(=O)c2cccc(-c3cc(F)c(F)c(F)c3)c2Cl)nc1 | > 1000 nM | 3.52% |  | 
5 | COC(=O)[C@H]1CCN(Cc2ccc(NC(=O)c3cccc(-c4ccccc4)c3Cl)nc2)C1 | > 1000 nM | 50.6% |  | 
6 | O=C(Nc1ccc(CN2CC[C@H](C(=O)O)C2)cn1)c1cccc(-c2ccc3c(c2)OCCO3)c1F | > 1000 nM | inactive |  | 
7 | O=C(Nc1ccc(CN2CC[C@@H](O)C2)cn1)c1cccc(-c2ccccc2)c1Cl | 373 nM |  |  | 
8 | CC(=O)NCCNCc1ccc(NC(=O)c2cccc(-c3ccccc3)c2Cl)nc1C(F)(F)F | > 1000 nM | 33.8% |  | 
9 | O=C(Nc1ccc(CNCCO)cn1)c1cccc(-c2ccccc2)c1Cl | 502 nM |  |  | 
10 | O=C(Nc1ccc(CN2CCC(O)CC2)cn1)c1cccc(-c2ccccc2)c1Cl | 460 nM |  |  | 
11 | COc1ccccc1-c1cccc(C(=O)Nc2ccc(CNCCNC(C)=O)cn2)c1Cl | > 1000 nM | 5.52% |  | 
12 | O=C(Nc1ccc(CN2CC[C@H](C(=O)O)C2)cn1)c1cccc(-c2ccc3c(c2)OCCO3)c1Br | 46.5 nM |  |  | 
13 | CO[C@H]1CCc2c(-c3cccc(C(=O)Nc4ccc(CNCCNC(C)=O)cn4)c3Cl)cccc21 | > 1000 nM | 7.75% |  | 
14 | COc1nc(NC(=O)c2cccc(-c3ccccc3)c2Cl)ccc1CNCCN(C)C | > 1000 nM | 11.6% |  | 
15 | CC(=O)NCCNCc1ccc(NC(=O)c2cccc(-c3ccccc3)c2Cl)nc1 | 496 nM |  |  | 
16 | COc1nc(NC(=O)c2cccc(-c3ccccc3)c2Cl)ccc1CNCCNC(C)=O | > 1000 nM | 28.2% |  | 
17 | COC(=O)C1CN(Cc2ccc(NC(=O)c3cccc(-c4ccccc4)c3Cl)nc2)C1 | > 1000 nM | 32.5% |  | 
18 | CC(=O)NCCNCc1ccc(NC(=O)c2cccc(-c3ccc(F)cc3)c2Cl)nc1 | > 1000 nM | 6.96% |  | 
19 | COc1cccc(-c2cccc(C(=O)Nc3ccc(CNCCNC(C)=O)cn3)c2Cl)c1 | > 1000 nM | 46.1% |  | 
20 | CC(=O)NCCNCc1ccc(NC(=O)c2cccc(-c3cccc(CO)c3)c2Cl)nc1 | > 1000 nM | 2.5% |  | 
21 | CC(=O)NCCNCc1ccc(NC(=O)c2cccc(-c3ccc(F)c(F)c3)c2Cl)nc1 | > 1000 nM | 2.32% |  | 

Row | SMILES | IC50 [1] | inhibition [2] | Activity (MDA-MB-231 [3]) | Activity (MDA-MB-231 [4])
22 | COc1ccc(-c2cccc(C(=O)Nc3ccc(CNCCNC(C)=O)cn3)c2Cl)cc1 | > 1000 nM | 8.37% |  | 
23 | CC(=O)NCCNCc1ccc(NC(=O)c2cccc(-c3ccc4c(c3)OCCO4)c2Cl)nc1 | 284 nM |  |  | 
24 | CN(C)CCNCc1ccc(NC(=O)c2cccc(-c3ccccc3)c2Cl)nc1 | > 1000 nM | 27.7% |  | 
25 | CC(=O)NCCNCc1ccc(NC(=O)c2cccc(-c3ccncc3)c2Cl)nc1 | > 1000 nM | inactive |  | 
26 | CC(=O)NCCNCc1cccc(NC(=O)c2cccc(-c3ccccc3)c2Cl)n1 | > 1000 nM | 15.8% |  | 
27 | COCCNCc1ccc(NC(=O)c2cccc(-c3ccccc3)c2Cl)nc1 | 797 nM |  |  | 
28 | O=C(Nc1ccc(CN2CC[C@H](C(=O)O)C2)cn1)c1cccc(-c2ccc3c(c2)OCCO3)c1 | > 1000 nM | inactive |  | 
29 | O=C(Nc1ccc(CNCCO)c(C(F)(F)F)n1)c1cccc(-c2ccccc2)c1Cl | > 1000 nM | 41.5% |  | 
30 | CC(=O)NCCNCc1ccc(NC(=O)c2cccc(-c3ccccc3)c2Cl)cc1 | > 1000 nM | 9.86% |  | 
31 | O=C(Nc1ccc(CN2CC(C(=O)O)C2)cn1)c1cccc(-c2ccccc2)c1Cl | 645 nM |  |  | 
32 | CC(=O)NCCNCc1ccc(NC(=O)c2cccc(-c3ccccc3)c2C)nc1 | > 1000 nM | 44.2% |  | 
33 | O=C(Nc1ccc(CN2CC[C@H](C(=O)O)C2)cn1)c1cccc(-c2ccccc2)c1Cl | 173 nM |  |  | 
34 | CC(=O)NCCNCc1ccc(NC(=O)c2cccc(-c3cccc4c3CC[C@@H]4O)c2Cl)nc1 | > 1000 nM | inactive |  | 
35 | CC(=O)NCCNCc1ccc(NC(=O)c2cccc(-c3ccccc3)c2Cl)nc1F | 581 nM |  |  | 
36 | O=C(Nc1ccc(CNCCO)c(F)n1)c1cccc(-c2ccccc2)c1Cl | 429 nM |  |  | 
37 | CC(=O)NCCNCc1ccnc(NC(=O)c2cccc(-c3ccccc3)c2Cl)c1 | 894 nM |  |  | 
38 | O=C(Nc1ccc(CN2CCCC[C@H]2C(=O)O)cn1)c1cccc(-c2ccccc2)c1Cl | > 1000 nM | 41.2% |  | 
39 | CC(=O)NCCNCc1ccc(NC(=O)c2cccc(-c3ccc(S(C)(=O)=O)cc3)c2Cl)nc1 | > 1000 nM | inactive |  | 
40 | O=C(Nc1ccc(CN2CC(O)C2)cn1)c1cccc(-c2ccccc2)c1Cl | 528 nM |  |  | 
41 | O=C(Nc1ccc(CN2CC[C@H](C(=O)O)C2)cn1)c1cccc(-c2ccc3c(c2)OCCO3)c1Cl | 16.2 nM |  | inactive | Active
42 | COC1CN(Cc2ccc(NC(=O)c3cccc(-c4ccccc4)c3Cl)nc2)C1 | > 1000 nM | 44% |  | 
